Tested on: 521955-158-R2-J5-PDC complex spheroid viability
Assay: Anticancer human tumor 521955-158-R2-J5-PDC patient-derived pancreatic carcinoma cell line growth inhibition [GQUAD]
Conditions: for IC50: curve of first compound; for viability, T/C: stronger effect = lower value
Summary of the method: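 Viability of tumor cells grown as complex spheroids with endothelial and stromal cells, exposed to drug combinations. Top concentration at or near clinical Cmax (else 10 microM), diluted in half-log increments.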

[1] = second compound 0.0316 µM, first compound 0.0316 µM
[2] = second compound 0.0316 µM, first compound 0.1 µM
[3] = second compound 0.0316 µM, first compound 0.316 µM
[4] = second compound 0.0316 µM, first compound 1 µM
[5] = second compound 0.0316 µM, first compound 3.16 µM
[6] = second compound 0.0316 µM, first compound 10 µM
[7] = second compound 0.1 µM, first compound 0.0316 µM
[8] = second compound 0.1 µM, first compound 0.1 µM
[9] = second compound 0.1 µM, first compound 0.316 µM
[10] = second compound 0.1 µM, first compound 1 µM
[11] = second compound 0.1 µM, first compound 3.16 µM
[12] = second compound 0.1 µM, first compound 10 µM
[13] = second compound 0.316 µM, first compound 0.0316 µM
[14] = second compound 0.316 µM, first compound 0.1 µM
[15] = second compound 0.316 µM, first compound 0.316 µM
[16] = second compound 0.316 µM, first compound 1 µM
[17] = second compound 0.316 µM, first compound 3.16 µM
[18] = second compound 0.316 µM, first compound 10 µM
[19] = second compound 1 µM, first compound 0.0316 µM
[20] = second compound 1 µM, first compound 0.1 µM
[21] = second compound 1 µM, first compound 0.316 µM
[22] = second compound 1 µM, first compound 1 µM
[23] = second compound 1 µM, first compound 3.16 µM
[24] = second compound 1 µM, first compound 10 µM
[25] = second compound 3.16 µM, first compound 0.0316 µM
[26] = second compound 3.16 µM, first compound 0.1 µM
[27] = second compound 3.16 µM, first compound 0.316 µM
[28] = second compound 3.16 µM, first compound 1 µM
[29] = second compound 3.16 µM, first compound 3.16 µM
[30] = second compound 3.16 µM, first compound 10 µM
[31] = second compound 10 µM, first compound 0.0316 µM
[32] = second compound 10 µM, first compound 0.1 µM
[33] = second compound 10 µM, first compound 0.316 µM
[34] = second compound 10 µM, first compound 1 µM
[35] = second compound 10 µM, first compound 3.16 µM
[36] = second compound 10 µM, first compound 10 µM
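Note: spheroids exposed to agents for one week before reading.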
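Throughout, for viability, T/C: 100% = DMSO vehicle control viability.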

Molecule `C=CCn1c(=O)c2cnc(Nc3ccc(N4CCN(C)CC4)cc3)nc2n1-c1cccc(C(C)(C)O)n1` + Cc1cnc(CNC(=O)c2c(=O)c3ccc(N4CCCN(C)CC4)nc3n3c2sc2ccccc23)cn1 has an IC50 (second compound 0.0316 µM) of 0.0771 µM, an IC50 (second compound 0.1 µM) of 0.124 µM and an IC50 (second compound 0.316 µM) of less than 0.0316 µM. It also gave an IC50 (second compound 1 µM) of less than 0.0316 µM, an IC50 (second compound 3.16 µM) of less than 0.0316 µM and an IC50 (second compound 10 µM) of less than 0.0316 µM. The viability, T/C [1] was 67%, the viability, T/C [2] was 44.9% and the viability, T/C [3] was 19.5%. It also gave a viability, T/C [4] of 10%, a viability, T/C [5] of 7.12% and a viability, T/C [6] of 11.2%. It also gave a viability, T/C [7] of 53.5%, a viability, T/C [8] of 56% and a viability, T/C [9] of 30.3%. The viability, T/C [10] was 17.6%, the viability, T/C [11] was 13.1% and the viability, T/C [12] was 11.6%. For the same molecule, the viability, T/C [13] was 35.1%, the viability, T/C [14] was 45.4% and the viability, T/C [15] was 28.4%. For the same molecule, the viability, T/C [16] was 20.1%, the viability, T/C [17] was 15.9% and the viability, T/C [18] was 11.2%. The viability, T/C [19] was 17.4%, the viability, T/C [20] was 19.6% and the viability, T/C [21] was 21.1%. It also gave a viability, T/C [22] of 17.7%, a viability, T/C [23] of 14.3% and a viability, T/C [24] of 10.1%. For the same molecule, the viability, T/C [25] was 13.3%, the viability, T/C [26] was 16.3% and the viability, T/C [27] was 17.8%. It also gave a viability, T/C [28] of 11.6%, a viability, T/C [29] of 11.7% and a viability, T/C [30] of 2.19%. It also gave a viability, T/C [31] of 11.6%, a viability, T/C [32] of 15% and a viability, T/C [33] of 15.4%. It also gave a viability, T/C [34] of 8.4%, a viability, T/C [35] of 0.28% and a viability, T/C [36] of 0.23%.

Molecule `CC(C)(O)C1CCC(Nc2ccc3ncc(-c4cccc(C(F)(F)F)c4)n3n2)CC1` (centres undefined) + Cc1cnc(CNC(=O)c2c(=O)c3ccc(N4CCCN(C)CC4)nc3n3c2sc2ccccc23)cn1 has an IC50 (second compound 0.0316 µM) of 1.68 µM, an IC50 (second compound 0.1 µM) of 1.2 µM and an IC50 (second compound 0.316 µM) of less than 0.0316 µM. For the same molecule, the IC50 (second compound 1 µM) was less than 0.0316 µM, the IC50 (second compound 3.16 µM) was less than 0.0316 µM and the IC50 (second compound 10 µM) was less than 0.0316 µM. The viability, T/C [1] was 79%, the viability, T/C [2] was 64.6% and the viability, T/C [3] was 90.4%. The viability, T/C [4] was 106%, the viability, T/C [5] was 6.53% and the viability, T/C [6] was 7.58%. For the same molecule, the viability, T/C [7] was 57.4%, the viability, T/C [8] was 57.8% and the viability, T/C [9] was 56.5%. It also gave a viability, T/C [10] of 58.6%, a viability, T/C [11] of 9.19% and a viability, T/C [12] of 8.3%. The viability, T/C [13] was 36.9%, the viability, T/C [14] was 30.2% and the viability, T/C [15] was 34%. For the same molecule, the viability, T/C [16] was 31.8%, the viability, T/C [17] was 7.87% and the viability, T/C [18] was 8.39%. It also gave a viability, T/C [19] of 18.4%, a viability, T/C [20] of 21.1% and a viability, T/C [21] of 16.7%. It also gave a viability, T/C [22] of 22.3%, a viability, T/C [23] of 0.25% and a viability, T/C [24] of 1.56%. The viability, T/C [25] was 18.8%, the viability, T/C [26] was 16.6% and the viability, T/C [27] was 17.7%. For the same molecule, the viability, T/C [28] was 15%, the viability, T/C [29] was 0.12% and the viability, T/C [30] was 0.12%. The viability, T/C [31] was 9.8%, the viability, T/C [32] was 14% and the viability, T/C [33] was 10.7%. For the same molecule, the viability, T/C [34] was 8.62%, the viability, T/C [35] was 0.21% and the viability, T/C [36] was 0.23%.

Source: PubChem BioAssay AID2060495 (Molecular Pharmacology Branch, DTP, NCI, 2025)
